Reference: patent publication US20140302113A1, “SYSTEMS, DEVICES, AND METHODS FOR EMBEDDING DRUG MOLECULES INTO MEDICAL CATHETERS OR TUBES” (priority 2011, published 2014)
Like-named read-outs stand apart in the source and are kept apart here. Each block holds one compound with its values, some of them ahead of it.

What was measured:
[1] = solution with pH about 7.4; cited from earlier work
[2] = assay type: physicochemical; settings: loaded catheter in Example 4
Procedure: 0.16 g of chlorhexidine diacetate was dissolved in 15.8 gram distilled water in a glass jar to form a clear solution. A section of a silicone coated latex Foley catheter (Bardia Foley Catheter, 16 Fr. Reorder No. 123516A, Lot MYUDR067), approximately 16 cm long, was placed into the jar and completely submerged in the solution. 0.08 g of a 10 wt % NaOH solution was added into the loading solution to increase the pH. […] The jar was closed with a cap and placed into an oven with temperatures cycling between about 62° C. and 68° C. The jar was kept in the oven for the next 120 hours and was shaken occasionally during the 120 hour heat treatment period.
The release rates of chlorhexidine from the loaded catheter in Example 4 were measured as follows. The catheter section was thoroughly washed and cut into two pieces, Section A (7.774 cm) and Section B (8.055 cm). Each section was submerged into 17 mL of a 0.15 M pH7.4 phosphate buffer held in a glass vial, which was placed into a 37° C. water bath. At each time point, the catheter section was retrieved from the glass vial, dried, and placed into another glass vial containing 17 mL of a fresh pH 7.4 phosphate buffer. The vial was then placed into the 37° C. water bath. The amount of chlorhexidine in the solution remaining in the first vial was measured with HPLC. This process was repeated at each time point. The average flux of chlorhexidine released from the catheter wall during the period between the current and previous time points was calculated by dividing the total amount of chlorhexidine in the solution (microgram) by the total surface area of the catheter section (cm^2) and by the length of time between the two time points (hour). The result is the amount of chlorhexidine released per square centimeter of the catheter wall per hour. The average chlorhexidine release flux and the average amount of chlorhexidine released from each square centimeter of the catheter wall per 24 hour period are listed in Table 3.

[3] = Foley catheter of Example 6
Procedure: The tip and the discharge end were discarded because they would not be expected to touch the patient's mucosa during the catheter use. […] The holes on both ends of each of the four catheter sections were blocked. Each of the four catheter sections was placed into a glass scintillation vial. A 0.15 M PBS solution with pH 7.4 was used as release medium. 20.7 mL of the medium was added into the vial to submerge the entire catheter section. The vial was closed tightly and a vinyl tape was wrapped around the cap to prevent solvent evaporation. The vial was placed into a 37° C. water bath with no shaking (mimicking human use), and the time was set as t=0. […] The catheter sections was removed from the vial, dried with a tissue, and placed into a new vial with the same amount of release medium. The new vial was then put back into the same water bath. This process was repeated at each time point. The samples were analyzed with HPLC.

SMILES: CC(=O)O.CC(=O)O.NC(=N\CCCCCC/N=C(N)/N=C(\N)Nc1ccc(Cl)cc1)/N=C(\N)Nc1ccc(Cl)cc1 [Chlorhexidine diacetate, chlorhexidine diacetate]
- concentration that can be dissolved in water [1]: higher than 1.5 wt %

- period with more than 1 microgram of chlorhexidine released from each square centimeter of wall surface per 24 hour [2]: at least 11 days
- Average Chlorhexidine Amount/cm^2/24 hr ([2]; time 0.17 day): 218 micrograms
- Average Chlorhexidine Amount/cm^2/24 hr ([2]; time 0.5 day): 43.9 micrograms
- Average Chlorhexidine Amount/cm^2/24 hr ([2]; time 1.1 day): 21.5 micrograms
- Average Chlorhexidine Amount/cm^2/24 hr ([2]; time 1.6 day): 13.1 micrograms
- Average Chlorhexidine Amount/cm^2/24 hr ([2]; time 2 day): 10.2 micrograms
- Average Chlorhexidine Amount/cm^2/24 hr ([2]; time 2.5 day): 4.5 micrograms
- Average Chlorhexidine Amount/cm^2/24 hr ([2]; time 3 day): 4.3 micrograms
- Average Chlorhexidine Amount/cm^2/24 hr ([2]; time 3.5 day): 2.6 micrograms
- Average Chlorhexidine Amount/cm^2/24 hr ([2]; time 4.0 day): 3.3 micrograms
- Average Chlorhexidine Amount/cm^2/24 hr ([2]; time 4.5 day): 3.2 micrograms
- Average Chlorhexidine Amount/cm^2/24 hr ([2]; time 5 day): 3.2 micrograms
- Average Chlorhexidine Amount/cm^2/24 hr ([2]; time 5.5 day): 2.9 micrograms
- Average Chlorhexidine Amount/cm^2/24 hr ([2]; time 6 day): 2.6 micrograms
- Average Chlorhexidine Amount/cm^2/24 hr ([2]; time 6.5 day): 2.2 micrograms
- Average Chlorhexidine Amount/cm^2/24 hr ([2]; time 7 day): 1.8 micrograms
- Average Chlorhexidine Amount/cm^2/24 hr ([2]; time 8 day): 1.2 micrograms
- Average Chlorhexidine Amount/cm^2/24 hr ([2]; time 8.5 day): 1.4 micrograms
- Average Chlorhexidine Amount/cm^2/24 hr ([2]; time 9.0 day): 1.7 micrograms
- Average Chlorhexidine Amount/cm^2/24 hr ([2]; time 10.0 day): 2.0 micrograms
- Average Chlorhexidine Amount/cm^2/24 hr ([2]; time 11 day): 1.1 micrograms
- Average Chlorhexidine Amount/cm^2/24 hr ([2]; time 12 day): 0.8 micrograms
- Average Released Chlorhexidine Amount/cm^2/24 hr ([3]; time 0.17 day): 2.2 micrograms
- Average Released Chlorhexidine Amount/cm^2/24 hr ([3]; time 0.5 day): 3.8 micrograms
- Average Released Chlorhexidine Amount/cm^2/24 hr ([3]; time 1.0 day): 2.8 micrograms
- Average Released Chlorhexidine Amount/cm^2/24 hr ([3]; time 1.5 day): 3.4 micrograms
- Average Released Chlorhexidine Amount/cm^2/24 hr ([3]; time 2 day): 3.2 micrograms
- Average Released Chlorhexidine Amount/cm^2/24 hr ([3]; time 2.5 day): 2.4 micrograms
- Average Released Chlorhexidine Amount/cm^2/24 hr ([3]; time 3.1 day): 1.6 micrograms
- Average Released Chlorhexidine Amount/cm^2/24 hr ([3]; time 3.6 day): 1.5 micrograms
- Average Released Chlorhexidine Amount/cm^2/24 hr ([3]; time 4 day): 1.7 micrograms
- Average Released Chlorhexidine Amount/cm^2/24 hr ([3]; time 4.5 day): 1.0 micrograms
- Average Released Chlorhexidine Amount/cm^2/24 hr ([3]; time 5 day): 1.3 micrograms
- Average Released Chlorhexidine Amount/cm^2/24 hr ([3]; time 5.5 day): 1.0 micrograms
- Average Released Chlorhexidine Amount/cm^2/24 hr ([3]; time 6.5 day): 0.6 micrograms
- Average Released Chlorhexidine Amount/cm^2/24 hr ([3]; time 7 day): 0.7 micrograms
- Average Released Chlorhexidine Amount/cm^2/24 hr ([3]; time 7.5 day): 0.6 micrograms
- Average Released Chlorhexidine Amount/cm^2/24 hr ([3]; time 8 day): 0.5 micrograms
- Average Released Chlorhexidine Amount/cm^2/24 hr ([3]; time 9 day): 0.5 micrograms
- Average Released Chlorhexidine Amount/cm^2/24 hr ([3]; time 9.5 day): 0.5 micrograms
- Average Released Chlorhexidine Amount/cm^2/24 hr ([3]; time 10 day): 0.5 micrograms
- Average Released Chlorhexidine Amount/cm^2/24 hr ([3]; time 11 day): 0.5 micrograms
- Average Released Chlorhexidine Amount/cm^2/24 hr ([3]; time 12 day): 0.5 micrograms
- Average Released Chlorhexidine Amount/cm^2/24 hr ([3]; time 14 day): 0.4 micrograms
SMILES: [H]/N=C(\N/C(=N/[H])NCCCCCCNC(=N)NC(=N)Nc1ccc(Cl)cc1)Nc1ccc(Cl)cc1 [Chlorhexidine, chlorhexidine]
